From patent US6359144B1, “Combinatorial libraries of bicyclic guanidine derivatives and compounds therein” (Lion Bioscience AG, priority 1997, dated 2002)
Read-outs that look alike come from different tables or passages of the source.

Tests used:
[1] = target: T1, σ receptor (Rattus norvegicus, UniProt Q9R0C9); test: σ receptor radio-receptor binding assay
T1 construct: can be performed with particulate membranes prepared using a modification of the method described in Pasternak et al; tissue Rockland (Gilbertsville, Pa.); host or cells: rat brain minus cerebellum, crude particulate membranes
T1 sequence (Q9R0C9 whole entry): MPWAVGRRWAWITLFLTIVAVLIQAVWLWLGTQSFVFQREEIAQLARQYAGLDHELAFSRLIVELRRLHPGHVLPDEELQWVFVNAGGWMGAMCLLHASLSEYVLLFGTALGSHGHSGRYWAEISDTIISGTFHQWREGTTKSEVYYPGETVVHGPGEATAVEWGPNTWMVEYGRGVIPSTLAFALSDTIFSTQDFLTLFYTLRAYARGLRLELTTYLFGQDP
Source text: Additionally, such compounds can be tested in a σ receptor assay. Ligands for the σ receptor can be useful as antipsychotic agents, as described in Abou-Gharbia et al., Annual Reports in Medicinal Chemistry, 28:1-10 (1993).
Radio-receptor assays, such as those whose results are shown in Examples IV, V and VI, below, can be performed with particulate membranes prepared using a modification of the method described in Pasternak et al., Mol. Pharmacol. 11:340-351 (1975), which is incorporated herein by reference. Rat brains frozen in liquid nitrogen can be obtained from Rockland (Gilbertsville, Pa.). The brains are thawed, the cerebella removed and the remaining tissue weighed. Each brain is individually homogenized in 40 ml Tris-HCl buffer (50 mM, pH 7.4, 4° C.) and centrifuged (Sorvall® RC5C SA-600: Du Pont, Wilmington, Del.) (16,000 rpm) for 10 minutes. The pellets are resuspended in fresh Tris-HCl buffer and incubated at 37° C. for 40 minutes. Following incubation, the suspensions are centrifuged as before, the resulting pellets resuspended in 100 volumes of Tris buffer and the suspensions combined. Membrane suspensions are prepared and used in the same day.
Binding assays are carried out in polypropylene tubes, each tube containing 0.5 ml of membrane suspension. 8 nM of ^3H-[D-Ala^2,Me-Phe^4,Gly-ol^5]enkephalin (DAMGO) (specific activity=36 Ci/mmol, 160,000 cpm per tube; which can be obtained from Multiple Peptide Systems, San Diego, Calif., through NIDA drug distribution program 271-90-7302) and 80 μg/ml of bicyclic guanidine, individual or as a mixture and Tris-HCl buffer in a total volume of 0.65 ml. Assay tubes are incubated for 60 mins. at 25° C. The reaction is terminated by filtration through GF-B filters on a Tomtec harvester (Orange, Conn.). The filters are subsequently washed with 6 ml of Tris-HCl buffer, 4° C. Bound radioactivity is counted on a Pharmacia Biotech Betaplate Liquid Scintillation Counter (Piscataway, N.J.) and expressed in cpm. To determine inter- and intra-assay variation, standard curves in which ^3H-DAMGO is incubated in the presence of a range of concentrations of unlabeled DAMGO (0.13-3900 nM) are generally included in each plate of each assay (a 96-well format). Competitive inhibition assays are performed as above using serial dilutions of the bicyclic guanidines, individually or in mixtures.
As opposed to this μ receptor selective assay, which can be carried out using ^3H-DAMGO as radioligand, as described above, assays selective for κ receptors can be carried out using [^3H]-U69,593 (3 nM, specific activity 62 Ci/mmol) as radioligand. Assays selective for δ opiate receptors can be carried out using tritiated DSLET ([D-Ser^2, D-Leu^5]-threonine-enkephalin) as radioligand. Assays selective for the σ opiate receptor can use radiolabeled pentazocine as ligand.

[2] = target: T2, κ-opioid receptor (Rattus norvegicus, UniProt P34975); test: κ-opioid receptor radio-receptor binding assay ([3H]-U69,593); conditions: Table 9
T2 construct: can be performed with particulate membranes prepared using a modification of the method described in Pasternak et al; tissue Rockland (Gilbertsville, Pa.); host or cells: rat brain minus cerebellum, crude particulate membranes
T2 sequence (P34975 whole entry): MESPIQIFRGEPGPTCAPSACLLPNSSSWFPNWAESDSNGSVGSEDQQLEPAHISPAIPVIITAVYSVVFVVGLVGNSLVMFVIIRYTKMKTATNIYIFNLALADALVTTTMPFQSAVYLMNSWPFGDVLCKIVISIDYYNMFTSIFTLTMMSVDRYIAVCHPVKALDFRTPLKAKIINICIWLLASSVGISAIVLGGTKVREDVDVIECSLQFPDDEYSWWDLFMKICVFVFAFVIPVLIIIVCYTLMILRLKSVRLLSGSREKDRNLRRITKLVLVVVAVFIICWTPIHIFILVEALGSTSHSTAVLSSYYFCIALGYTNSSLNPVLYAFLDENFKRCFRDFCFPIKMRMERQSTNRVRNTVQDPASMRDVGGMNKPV

[3] = 17 additional individual compounds, Table 11
[4] = 24 individual compounds, Table 10
[5] = 24 individual compounds, read-out: IC50

| Compound | IC50 [1, 3] [nM] | IC50 [1, 4] [nM] | also measured |
| --- | --- | --- | --- |
| CCN1C2=NCC(Cc3ccccc3)N2CC1CC1CCCCC1 (stereo not drawn) [Phe/Cha/acetic acid] | 52 | – | – |
| CC(C)CCN1C2=NC[C@H](Cc3ccccc3)N2C[C@@H]1Cc1ccccc1 [Phe/Phe/isovaleric acid] | 156 | – | – |
| CCN1C2=NC[C@H](Cc3ccccc3)N2C[C@@H]1Cc1ccc(OC)cc1 [Phe/Tyr(Me)/acetic acid] | 69 | – | – |
| CCN1C2=NCC(Cc3ccccc3)N2CC1Cc1ccc(Cl)cc1 (stereo not drawn) [Phe/pCl-Phe/acetic acid] | 60 | – | – |
| CCN1C2=NC[C@H](Cc3ccccc3)N2C[C@H]1Cc1ccc(Cl)cc1 [Phe/pCl-phe/acetic acid] | 127 | – | – |
| COc1ccc(C[C@H]2CN3C(=NC[C@H]3C3CCCCC3)N2CCCC2CCCCC2)cc1 [compound 2] | – | 585 | – |
| COc1ccc(C[C@H]2CN3C(=NC[C@@H]3C3CCCCC3)N2CCCC2CCCCC2)cc1 [compound 3] | – | 23 | – |
| COc1ccc(C[C@H]2CN3C(=NC[C@@H]3C)N2CCCC2CCCCC2)cc1 [compound 4] | – | 52 | – |
| CC(C)C[C@@H]1CN2C(=NC[C@@H]2C)N1CCCC1CCCCC1 [compound 7] | – | 530 | IC50 [2, 5]: 5440 nM |
| CC(C)C[C@@H]1CN2C(=NC[C@@H]2C2CCCCC2)N1CCCC1CCCCC1 [compound 9] | – | 13 | IC50 [2, 5]: 3740 nM |
| C1CCC(CCCN2C3=NC[C@@H](C4CCCCC4)N3C[C@@H]2C2CCCCC2)CC1 [compound 11] | – | 405 | – |
| C1CCC(CCCN2C3=NC[C@H](C4CCCCC4)N3C[C@@H]2C2CCCCC2)CC1 [compound 12] | – | 210 | – |
| COc1ccc(CC2CN3C(=NCC3C)N2CCC23CC4CC(CC(C4)C2)C3)cc1 (stereo not drawn) [compound 13] | – | 235 | IC50 ([2]; IC50, 24 individual compounds): 1520 nM |
| COc1ccc(CC2CN3C(=NCC3C3CCCCC3)N2CCC23CC4CC(CC(C4)C2)C3)cc1 (stereo not drawn) [compound 15] | – | 256 | IC50 ([2]; IC50, 24 individual compounds): 4920 nM |
| COc1ccc(CC2CN3C(=NCC3C)N2CCC23CC4CC(CC(C4)C2)C3)cc1 (stereo not drawn) [compound 16] | – | 1080 | IC50 ([2]; IC50, 24 individual compounds): 238 nM |
| CC(C)CC1CN2C(=NCC2C)N1CCC12CC3CC(CC(C3)C1)C2 (stereo not drawn) [compound 19] | – | 974 | IC50 ([2]; IC50, 24 individual compounds): 3640 nM |
| CC(C)CC1CN2C(=NCC2C2CCCCC2)N1CCC12CC3CC(CC(C3)C1)C2 (stereo not drawn) [compound 21] | – | 124 | IC50 ([2]; IC50, 24 individual compounds): 1210 nM |

Now from value to compound, other results behind:

| IC50 [1, 3] [nM] | Compound | IC50 [1, 4] [nM] | also measured |
| --- | --- | --- | --- |
| 214 | CCCC[C@H]1CN=C2N(CC)[C@@H](Cc3ccccc3)CN21 [Nle/Phe/acetic acid] | – | – |
| 112 | CC(C)(C)CCN1C2=NC[C@H](Cc3ccccc3)N2C[C@@H]1Cc1ccccc1 [Phe/Phe/(tert-butyl)acetic acid] | – | – |
| 119 | CCN1C2=NC[C@H](Cc3ccccc3)N2C[C@H]1C1CCCCC1 [Phe/chg/acetic acid] | – | – |
| 215 | CCN1C2=NC[C@H](Cc3ccccc3)N2C[C@@H]1Cc1ccc(F)cc1 [Phe/pF-Phe/acetic acid] | – | – |
| 242 | CCN1C2=NC[C@H](Cc3ccccc3)N2C[C@H]1Cc1ccc(F)cc1 [Phe/pF-phe/acetic acid] | – | – |
| 65 | CCN1C2=NC[C@H](Cc3ccccc3)N2C[C@@H]1Cc1ccc(I)cc1 [Phe/pI-Phe/acetic acid] | – | – |
